Broadly, the IC50 is the midpoint of a concentration-inhibition curve. The term melting point denotes the temperature, or range, at which the solid turns liquid.

Like-named read-outs stand apart in the source and are kept apart here. Where only a bound is given, the exact number is not on record here.

The conditions of data set [1]: relative to morphine; cited from earlier work.
For data set [2], the target named is nAChRs comprised of α4 and β2 subunits (Rattus norvegicus, UniProt P09483+P12390). As to the kind of experiment: In vitro inhibition of 3H-cytisine binding. On the procedure:
The predominant subtype with high affinity for nicotine is comprised of α4 and β2 subunits. nAChRs of the latter type can selectively be labelled by the nicotine agonist ^3H-cytisine.
Tissue Preparation: Preparations are performed at 0-4° C. unless otherwise indicated. […] The homogenate is centrifuged at 27,000×g for 10 min. The supernatant is discarded and the pellet is resuspended in fresh buffer and centrifuged a second time. The final pellet is resuspended in fresh buffer (35 ml per g of original tissue) and used for binding assays.
Assay: Aliquots of 500 μl homogenate are added to 25 μl of test solution and 25 μl of ^3H-cytisine (1 nM, final concentration), mixed and incubated for 90 min at 2° C. Non-specific binding is determined using (−)-nicotine (100 μM, final concentration). After incubation the samples are added 5 ml of ice-cold buffer and poured directly onto Whatman GF/C glass fibre filters under suction and immediately washed with 2×5 ml ice-cold buffer. The amount of radioactivity on the filters is determined by conventional liquid scintillation counting. Specific binding is total binding minus non-specific binding.

In data set [3] the target is T1, neuronal nicotinic receptors (α4β2 subtype high affinity site) (Rattus norvegicus, UniProt P09483+P12390).
T1 construct: The forebrain (÷cerebellum) from a male Wistar rat (150-250 g) is homogenized; from tissue; host or cells: rat forebrain (without cerebellum) membrane homogenate
Put plainly: In vitro inhibition of 3H-epibatidin binding. How it is done:
The high affinity binding site for ^3H-epibatidin is most certainly binding to the α4β2 subtype of nicotinic receptors. The identity of the low affinity site is still unknown; does it represent a second nicotinic receptor or a second site in the same receptor.
Tissue preparation: Preparations are performed at 0-4° C. unless otherwise indicated. The forebrain (÷cerebellum) from a male Wistar rat (150-250 g) is homogenized for 10-20 sec in 20 ml Tris, HCl (50 mM, pH 7.4) using an Ultra-Turrax homogenizer. The tissue suspension is centrifuged at 27,000×g for 10 min. The supernatant is discarded and the pellet is washed three times by centrifugation at 27,000×g for 10 min in 20 ml fresh buffer, and the final pellet is resuspended in fresh buffer (400 ml per g of original tissue) and used for binding assays.
Assay: Aliquots of 2.0 ml homogenate are added to 0.100 ml of test solution and 0.100 ml of ^3H-epibatidin (0.3 nM, final concentration), mixed and incubated for 60 min at room temperature. Non-specific binding is determined using (−)-nicotine (30 μM, final concentration). After incubation the samples are poured directly onto Whatman GF/C glass fibre filters (presoaked in 0.1% PEI for at least 20 min) under suction and immediately washed with 2×5 ml ice-cold buffer. The amount of radioactivity on the filters is determined by conventional liquid scintillation counting. Specific binding is total binding minus non-specific binding.

Data set [4] has as its target nAChR formed by the α7 subunit isoform (Rattus norvegicus, UniProt Q05941). As to the kind of experiment: biochemical. It is filed as binding.
[5] abbreviates: rat forebrain homogenate, 0.3 nM 3H-epibatidin, 60 min at room temperature, read-out: 3H-epibatidin IC50.
The mark [6] stands for this setting: rat cerebral cortex homogenate, 1 nM 3H-cytisine, 90 min at 2° C., read-out: 3H-cytisine IC50.

Sequence of nAChR formed by the α7 subunit isoform (Q05941 23-502): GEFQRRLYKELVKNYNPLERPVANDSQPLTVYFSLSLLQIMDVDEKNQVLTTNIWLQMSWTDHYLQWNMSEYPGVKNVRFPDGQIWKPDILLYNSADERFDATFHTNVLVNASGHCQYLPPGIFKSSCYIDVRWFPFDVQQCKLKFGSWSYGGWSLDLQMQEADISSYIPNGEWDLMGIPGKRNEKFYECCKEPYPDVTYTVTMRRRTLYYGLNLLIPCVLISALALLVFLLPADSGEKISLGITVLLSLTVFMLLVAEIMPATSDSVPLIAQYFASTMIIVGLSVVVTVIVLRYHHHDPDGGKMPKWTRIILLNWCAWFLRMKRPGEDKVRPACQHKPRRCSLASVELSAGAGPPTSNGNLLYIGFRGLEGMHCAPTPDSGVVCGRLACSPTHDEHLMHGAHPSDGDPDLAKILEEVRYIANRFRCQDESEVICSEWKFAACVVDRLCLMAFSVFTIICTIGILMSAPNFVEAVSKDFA
Sequence of nAChRs comprised of α4 and β2 subunits (P09483 31-630): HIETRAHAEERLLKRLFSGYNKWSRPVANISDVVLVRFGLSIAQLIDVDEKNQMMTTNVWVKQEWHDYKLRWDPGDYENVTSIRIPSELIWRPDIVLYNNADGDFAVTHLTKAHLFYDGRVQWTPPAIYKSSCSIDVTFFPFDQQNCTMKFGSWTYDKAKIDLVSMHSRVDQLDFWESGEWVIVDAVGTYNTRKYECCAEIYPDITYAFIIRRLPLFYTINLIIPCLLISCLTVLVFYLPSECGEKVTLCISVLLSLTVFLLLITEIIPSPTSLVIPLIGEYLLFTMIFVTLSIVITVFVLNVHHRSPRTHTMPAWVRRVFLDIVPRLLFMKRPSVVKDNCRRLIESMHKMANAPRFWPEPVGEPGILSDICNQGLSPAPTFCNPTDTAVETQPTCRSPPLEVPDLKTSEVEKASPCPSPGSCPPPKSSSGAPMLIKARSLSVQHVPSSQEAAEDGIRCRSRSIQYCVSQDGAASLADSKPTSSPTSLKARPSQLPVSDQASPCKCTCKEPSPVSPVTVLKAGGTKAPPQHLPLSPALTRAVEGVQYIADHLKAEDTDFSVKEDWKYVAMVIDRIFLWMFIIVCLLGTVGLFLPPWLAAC
Sequence of nAChRs comprised of α4 and β2 subunits (P12390 25-500): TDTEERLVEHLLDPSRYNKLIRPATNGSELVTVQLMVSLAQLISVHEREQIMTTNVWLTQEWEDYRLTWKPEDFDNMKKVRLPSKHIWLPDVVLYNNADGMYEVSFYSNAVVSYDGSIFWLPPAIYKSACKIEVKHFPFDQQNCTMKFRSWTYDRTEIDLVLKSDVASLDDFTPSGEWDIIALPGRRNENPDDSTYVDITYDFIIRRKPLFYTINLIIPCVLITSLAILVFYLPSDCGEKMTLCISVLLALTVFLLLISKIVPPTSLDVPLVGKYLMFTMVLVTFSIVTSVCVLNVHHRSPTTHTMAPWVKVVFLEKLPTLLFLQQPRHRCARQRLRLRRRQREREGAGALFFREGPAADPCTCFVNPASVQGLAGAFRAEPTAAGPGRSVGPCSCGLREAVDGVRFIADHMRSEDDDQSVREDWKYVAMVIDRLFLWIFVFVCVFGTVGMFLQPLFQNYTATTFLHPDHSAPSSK
T1 sequence (P09483 31-630): as the sequence (P09483 31-630) above
T1 sequence (P12390 25-500): as the sequence (P12390 25-500) above

`Clc1ccc(C2CC3CCC2N3)cn1` (centres unmarked) [Epibatidine]: the “analgesic potency, times that of morphine” value in data set [1] is listed as about 500 times.

In turn, `COc1cncc(N2CCN(C)CC2)c1` [Compound 3A, 4-Methyl-1-(5-methoxy-3-pyridyl)-piperazine] returned a melting point of 67.5 to 68 °C. In data set [2], this compound gave an IC50 of 68 nM. Moreover, the IC50 in data set [3] (setting [5]) was 380 nM. Moreover, 32500 nM corresponded to half-maximal inhibition in data set [4] (IC50).

On to `CN1CCCN(c2cncc(-c3ccccc3)c2)CC1` [Compound 5E, 4-Methyl-1-(5-phenyl-3-pyridyl)-homopiperazine], for which the IC50 in data set [2] (setting [6]) came out at 200 nM; in data set [3] it was 1500 nM; in data set [4], 16000 nM.

Consider `COc1cncc(N2CCN(C)C2)c1` [Compound 1M, 1-(5-Methoxy-3-pyridyl)-3-methyl-imidazolidine], for which the IC50 in data set [2] is 590 nM; in data set [3], 8800 nM; in data set [4], over 30000 nM.

Regarding `CCCCCCCOc1cncc(N2CCCN(C)CC2)c1` [Compound 16E, 1-(5-Heptyloxy-3-pyridyl)-4-methyl-homopiperazine], the IC50 in data set [2] (setting [6]) was 280 nM; in data set [3], 700 nM; in data set [4], over 30000 nM.

In the case of `c1cnnc(N2CCCNCC2)c1` [Compound 1L, 1-(3-Pyridazinyl)-homopiperazine], the values for the IC50 in data set [2], in data set [3] and in data set [4] were 30 nM, 250 nM and 1600 nM, respectively.

`CN1CCCN(c2cccnc2)CC1` [Compound 1E, 4-Methyl-1-(3-pyridyl)-homopiperazine]: the IC50 in data set [2] (setting [6]) came to 150 nM; in data set [3] it was 400 nM; in data set [4] it was 4600 nM.

With `COc1cc(N2CCCNCC2)cnc1Cl` [Compound 5F, 1-(6-Chloro-5-methoxy-3-pyridyl)-homopiperazine], the IC50 in data set [2] came to 0.7 nM; in data set [3], 5 nM; in data set [4], 900 nM.

Consider `COc1cncc(N2CCNCC2)c1` [Compound 3B, 1-(5-Methoxy-3-pyridyl)-piperazine], for which the IC50 in data set [2] (setting [6]) was 800 nM; in data set [3] it was 4500 nM; in data set [4] it was over 30000 nM.

Take `COCCOc1cncc(N2CCCN(C)CC2)c1` [Compound 7E, 1-(5-Methoxyethoxy-3-pyridyl)-4-methyl-homopiperazine]: the results for the IC50 in data set [2], in data set [3] (setting [5]) and in data set [4] were 70 nM, 550 nM and over 30000 nM, respectively.

With `Cc1ccc(N2CCCNCC2)nn1` [Compound 5K, 1-(6-Methyl-3-pyridazinyl)-homopiperazine], the results for the IC50 in data set [2], in data set [3] and in data set [4] were 160 nM, 740 nM and 4800 nM, respectively.

Turning to `Brc1ccc(N2CCCNCC2)cn1` [Compound 8K, 1-(6-Bromo-3-pyridyl)-homopiperazine], the values for the IC50 in data set [2] (setting [6]), in data set [3] and in data set [4] were 1 nM, 10 nM and 620 nM, respectively.

With `COCCOc1cncc(N2CCCNCC2)c1` [Compound 5H, 1-(5-Methoxyethoxy-3-pyridyl)-homopiperazine], the IC50 in data set [2] amounted to 2 nM; in data set [3], 20 nM; in data set [4], 19000 nM.

On to `CN1CCN(c2cncc(-c3ccccc3)c2)CC1` [Compound 6A, 4-Methyl-1-(5-phenyl-3-pyridyl)-piperazine], for which the IC50 is 80 nM in data set [2], 1100 nM in data set [3] (setting [5]) and over 30000 nM in data set [4].

Take `CCCCCCOc1cncc(N2CCCN(C)CC2)c1` [Compound 11E, 1-(5-Hexyloxy-3-pyridyl)-4-methyl-homopiperazine]: the figures for the IC50 in data set [2] (setting [6]), in data set [3] and in data set [4] were 800 nM, 250 nM and over 30000 nM, respectively.

The values above are taken from patent publication US6897219B2, “Heteroaryl diazacycloalkanes, their preparation and use” (priority 1997, dated 2005).
